Test system: nine gram-positive organisms and the yeast/fungus Candida
Test: MIC, broth dilution, over all organisms (Examples I/II)
Type: cell-based
Conditions: all except streptococcus Group D; from essentially as active up to
Description: In order to establish comparative bactericidal and fungicidal results with homologous fatty acids, a series of experiments was performed with thirty straight-chain fatty acids and derivatives thereof. Eight different gram-negative and twelve different gram-positive organisms, representing a very broad spectrum of organisms, were used in these experiments including the fungus Candida (a yeast). Additionally, fatty acids were chosen to show the effects of saturation versus unsaturation, in the fatty acid claim. Standard solutions of the fatty acids and their derivatives were prepared by first dissolving the weighed compounds in 1 to 2 ml of 95% ethanol and immediately pouring this solution into 200 ml of Tripticase Soy Broth. These lipid compounds which are insoluble in water and broth precipitated into very small crystals or droplets. The tubes containing the suspension were warmed to approximately 70° C and were then placed in an ultrasonic tank for further solubilization of the lipid derivatives.
Standard solutions (or suspensions) at 1,000 μg/ml were twofold serially diluted with additional broth to a concentration of 125 μg/ml. A 4-ml amount of each dilution was then quickly, and with constant agitation, dispensed into appropriately labeled screw-capped glass tubes (16 by 125 mm). The tubes were sterilized with steam at 15 psi for 15 minutes. After sterilization, all tubes were cooled and incubated overnight at 35° C to insure sterility.
All compounds were compared on a molar (micromoles/milliliter) rather than on a mass basis. In the following lists of organisms used, those followed by a parenthetical number are registered with the American Type Culture Collection (ATCC); the remainder were isolates from Providence Hospital or Northland Laboratory.
Staphylococcus aureus, S. epidermidis, beta-hemolytic streptococci (Group A and non-group A), group D streptococcus, Bacillus subtilis (6051), Sarcina lutea (9431), Micrococcus sp., Candida albicans, Nocardia asteroids (3308), Corynebacterium sp. (10700), and pneumococcus (63001).
One drop (0.04 ± 0.01 ml) of an 18-hr broth culture containing 10^7 and 10^9 organisms/ml was added to each dilution of the test compound, as well as to a tube of plain broth which served as the positive control. After inoculation, the contents of each tube were well mixed, and the tubes were incubated at 35° C in a 5% carbon dioxide + […] atmosphere.
The MIC is defined as the lowest concentration of compound at which no […] evidence of growth was observed when turbidity of the inoculated broth dilutions was compared with control tubes. […] Only a one-tube difference between the bactericidal and bacteriostatic concentrations was normally observed.
Table 5 presents a comparison of the C10 and C12 free acids and their glyceryl derivatives, and Table 6 gives the corresponding ranges of activity.
Standard solutions (1000 μg/ml) of three fatty acids and polyglycerol esters thereof were prepared as described in Example I. Also sucrose esters were prepared by transferring the weighed compounds (0.2 gm. dissolved in 1 ml absolute methanol) into 200 ml of sterile Trypticase Soy Broth (TSB). These standard solutions (1000 μg/ml) were twofold serially diluted with additional sterile broth to a concentration of 125 μg/ml. A 3.8 aliquot of each dilution was asceptically delivered into sterile screw-capped culture tubes. All tubes were incubated overnight at 36° C to insure sterility. The microorganisms used in this example were the same as those used in Example I.
The inoculum, 0.05 ml of an 13-24 hour TSB culture (approximately 10^9 organisms/ml) was asceptically delivered into all dilutions of the compounds, mixed well, and incubated at 36° C. […]

SMILES: CCCCCCCCCCCC(=O)OCC(O)CO (stereo not shown) [GML, glycerol mono-laurin]
- Activity of mono-laurin relative to mono-capric: ≤ 5.5 times
